Data on 2 molecules can be found in patent US7491844B2, “Therapeutic cyclopentane derivatives” (Allergan, Inc., priority 2006, dated 2009).

Each structure is given as a SMILES string.

The target of one experiment is T1, hEP3A/Gqi5 (Homo sapiens, UniProt P43115).
T1 construct: expressed in transfected cells; host or cells: HEK-293(EBNA)
T1 sequence (P43115 1-390): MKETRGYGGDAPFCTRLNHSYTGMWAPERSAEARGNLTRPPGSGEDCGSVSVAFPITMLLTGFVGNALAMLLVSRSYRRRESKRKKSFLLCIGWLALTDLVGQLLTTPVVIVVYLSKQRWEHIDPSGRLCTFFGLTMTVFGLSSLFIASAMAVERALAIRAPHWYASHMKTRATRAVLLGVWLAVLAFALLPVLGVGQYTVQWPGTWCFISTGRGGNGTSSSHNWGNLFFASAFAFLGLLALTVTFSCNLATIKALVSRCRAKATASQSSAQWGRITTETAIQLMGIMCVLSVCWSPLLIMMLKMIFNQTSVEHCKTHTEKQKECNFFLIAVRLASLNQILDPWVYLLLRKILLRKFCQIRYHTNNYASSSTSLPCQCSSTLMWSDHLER
In words: FLIPR calcium signal, HEK-293(EBNA) cells. Format: cell-based. Particulars: read-out: Ca2+ Signal-EC50 (nM) EP3. The method, then: (§1) HEK-293(EBNA) cells, stably expressing one type or subtype of recombinant human prostaglandin receptors (prostaglandin receptors expressed: hDP/Gqs5; hEP1; hEP2/Gqs5; hEP3A/Gqi5; hEP4/Gqs5; hFP; hiP; hTP), were cultured in 100 mm culture dishes in high-glucose DMEM medium containing 10% fetal bovine serum, 2 mM l-glutamine, 250 ? g/ml geneticin (G418) and 200 ? g/ml hygromycin B as selection markers, and 100 units/ml penicillin G, 100 ? g/ml streptomycin and 0.25 ? g/ml amphotericin B.
(§2) Cells were seeded at a density of 5×10^4 cells per well in Biocoat® Poly-D-lysine-coated black-wall, clear-bottom 96-well plates (Becton-Dickinson) and allowed to attach overnight in an incubator at 37° C. Cells were then washed two times with HBSS-HEPES buffer (Hanks Balanced Salt Solution without bicarbonate and phenol red, 20 mM HEPES, pH 7.4) using a Denley Cellwash plate washer (Labsystems). After 45 minutes of dye-loading in the dark, using the calcium-sensitive dye Fluo-4 AM at a final concentration of 2 ? M, plates were washed four times with HBSS-HEPES buffer to remove excess dye leaving 100 ? l in each well. Plates were re-equilibrated to 37° C. for a few minutes.
(§3) Cells were excited with an Argon laser at 488 nm, and emission was measured through a 510-570 nm bandwidth emission filter (FLIPR™, Molecular Devices, Sunnyvale, Calif.). Drug solution was added in a 50 ? l volume to each well to give the desired final concentration. The peak increase in fluorescence intensity was recorded for each well. On each plate, four wells each served as negative (HBSS-HEPES buffer) and positive controls (standard agonists: BW245C (hDP); PGE2 (hEP1; hEP2/Gqs5; hEP3A/Gqi5; hEP4/Gqs5); PGF2 ? (hFP); carbacyclin (hIP); U-46619 (hTP), depending on receptor). The peak fluorescence change in each drug-containing well was then expressed relative to the controls.
(§4) Compounds were tested in a high-throughput (HTS) or concentration-response (CoRe) format. In the HTS format, forty-four compounds per plate were examined in duplicates at a concentration of 10^−5 M. To generate concentration-response curves, four compounds per plate were tested in duplicates in a concentration range between 10^−5 and 10^−11 M. The duplicate values were averaged. In either, HTS or CoRe format each compound was tested on at least 3 separate plates using cells from different passages to give an n≧3.

In the next experiment the target is T2, hEP2/Gqs5 (Homo sapiens, UniProt P43116).
T2 construct: expressed in transfected cells; host or cells: HEK-293(EBNA)
T2 sequence (P43116 whole entry): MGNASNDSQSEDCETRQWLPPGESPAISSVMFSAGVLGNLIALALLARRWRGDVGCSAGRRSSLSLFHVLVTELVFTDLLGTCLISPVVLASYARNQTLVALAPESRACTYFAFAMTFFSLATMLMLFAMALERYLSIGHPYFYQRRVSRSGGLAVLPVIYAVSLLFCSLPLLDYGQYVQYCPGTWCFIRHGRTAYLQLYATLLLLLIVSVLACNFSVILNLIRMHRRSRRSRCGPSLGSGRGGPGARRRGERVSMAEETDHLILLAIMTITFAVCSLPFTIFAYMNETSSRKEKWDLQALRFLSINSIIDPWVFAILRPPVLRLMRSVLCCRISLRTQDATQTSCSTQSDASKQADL
In words: FLIPR calcium signal, HEK-293(EBNA) cells. Format: cell-based. The settings on record: value outside the parentheses; read-out: Ca2+ Signal-EC50 (nM) EP2. Here is the method: as §1, §2, §3, §4

A further experiment has as its target T3, hEP4/Gqs5 (Homo sapiens, UniProt P35408).
T3 construct: expressed in transfected cells; host or cells: HEK-293(EBNA)
The experiment in a line: FLIPR calcium signal, HEK-293(EBNA) cells. Format: cell-based. The settings on record: read-out: Ca2+ Signal-EC50 (nM) EP4. Here is the method:
as §1, §2, §3, §4

The next experiment addresses EP2 (Homo sapiens, UniProt P43116). In words: Competition radioligand binding, [3H]PGE2, HEK 293 cells expressing EP2. Also noted: expressed in transfected cells; host or cells: HEK 293 (membranes or whole cells). Here is the method: Competition binding experiments were performed in a medium containing Hank's balanced salt solution, Hepes 20 mM, pH 7.3, membranes (˜60 μg protein) or 2×10^5 cells from HEK 293 cells stably expressing human EP2 receptors, [^3H]PGE2 (10 nM) and various concentrations of test compounds in a total volume of 300 μl. Reaction mixtures were incubated at 23° C. for 60 min, and were filtered over Whatman GF/B filters under vacuum. Filters were washed three times with 5 ml ice-cold buffer containing 50 mM Tris/HCl (pH 7.3). Non-specific binding was estimated in the presence of excess unlabeled PGE2 (10 μM). Binding data fitted to the binding model for a single class of binding sites, using nonlinear regression analysis. IC50 values thus obtained were converted to Ki using the equation of Ki=(IC50/(1+[L]/KD) where [L] represents PGE2 concentration (10 nM) and KD the dissociation constant for [^3H]PGE2 at human EP2 receptors (40 nM). […]
The cell homogenate was centrifuged at 19000 r.p.m. for 20 min at 4° C. using a Beckman Ti-60 rotor. The resultant pellet was resuspended in TME buffer to give a final 1 mg/ml protein concentration, as determined by Biorad assay. […]
[^3H-] […] 17-phenyl PGF2 ? and non-specific binding determined with 10^−5M of unlabeled PGE2, or 17-phenyl PGF2 ? , according to receptor subtype studied.

The next experiment has as its target T4, EP4 receptors (Homo sapiens, UniProt P35408).
T4 construct: expressed in transfected cells; host or cells: HEK-293 (plasma membrane fraction)
The experiment in a line: Radioligand binding, [3H]PGE2, HEK-293 cells expressing EP4. Here is the method: HEK-293 cells stably expressing the human or feline FP receptor, or EP1, EP2, or EP4 receptors were washed with TME buffer, scraped from the bottom of the flasks, and homogenized for 30 sec using a Brinkman PT 10/35 polytron. TME buffer was added to achieve a final 40 ml volume in the centrifuge tubes (the composition of TME is 100 mM TRIS base, 20 mM MgCl2, […]; 10N HCl is added to achieve a pH of 7.4).
The cell homogenate was centrifuged at 19000 r.p.m. for 20 min at 4° C. using a Beckman Ti-60 rotor. The resultant pellet was resuspended in TME buffer to give a final 1 mg/ml protein concentration, as determined by Biorad assay. Radioligand binding competition assays vs. [^3H-]17-phenyl PGF2 ? (5 nM) were performed in a 100 μl volume for 60 min. Binding reactions were started by adding plasma membrane fraction. The reaction was terminated by the addition of 4 ml ice-cold TRIS-HCl buffer and rapid filtration through glass fiber GF/B filters using a Brandel cell harvester. The filters were washed 3 times with ice-cold buffer and oven dried for one hour.
[^3H-] PGE2 (specific activity 180 Ci mmol) was used as the radioligand for EP receptors. [^3H] 17-phenyl PGF2 ? was employed for FP receptor binding studies. […] 17-phenyl PGF2 ? and non-specific binding determined with 10^−5M of unlabeled PGE2, or 17-phenyl PGF2 ? , according to receptor subtype studied.

For a further experiment, the target named is T5, hIP (Homo sapiens, UniProt P43119).
T5 construct: expressed in transfected cells; host or cells: HEK-293(EBNA)
T5 sequence (P43119 whole entry): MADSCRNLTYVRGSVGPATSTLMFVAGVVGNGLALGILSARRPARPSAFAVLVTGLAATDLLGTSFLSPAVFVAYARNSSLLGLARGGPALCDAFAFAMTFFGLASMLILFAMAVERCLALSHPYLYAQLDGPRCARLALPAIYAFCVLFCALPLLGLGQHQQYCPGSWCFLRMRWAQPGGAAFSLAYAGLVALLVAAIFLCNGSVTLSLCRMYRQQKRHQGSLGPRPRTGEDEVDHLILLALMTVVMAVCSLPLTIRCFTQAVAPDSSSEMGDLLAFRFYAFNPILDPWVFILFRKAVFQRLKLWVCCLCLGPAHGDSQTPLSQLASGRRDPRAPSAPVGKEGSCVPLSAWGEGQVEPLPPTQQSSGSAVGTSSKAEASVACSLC
The experiment in a line: FLIPR calcium signal, HEK-293(EBNA) cells. Format: cell-based. The method, then:
as §1, §2, §3, §4

The target of another experiment is T6, hEP1 (Homo sapiens, UniProt P34995).
T6 construct: expressed in transfected cells; host or cells: HEK-293(EBNA)
T6 sequence (P34995 1-402): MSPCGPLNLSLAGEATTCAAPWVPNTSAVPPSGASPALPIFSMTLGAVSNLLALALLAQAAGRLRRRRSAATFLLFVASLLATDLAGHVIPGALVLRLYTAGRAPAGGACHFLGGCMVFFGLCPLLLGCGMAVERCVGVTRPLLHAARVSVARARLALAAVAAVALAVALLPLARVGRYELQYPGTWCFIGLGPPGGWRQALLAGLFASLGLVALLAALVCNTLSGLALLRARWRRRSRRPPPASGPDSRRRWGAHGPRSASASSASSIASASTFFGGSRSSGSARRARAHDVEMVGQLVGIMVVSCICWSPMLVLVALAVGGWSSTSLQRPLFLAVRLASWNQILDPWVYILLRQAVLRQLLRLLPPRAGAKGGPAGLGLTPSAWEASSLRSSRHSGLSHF
In words: FLIPR calcium signal, HEK-293(EBNA) cells. Format: cell-based. Here is the method:
as §1, §2, §3, §4

The next experiment deals with T7, hTP (Homo sapiens, UniProt P21731).
T7 construct: expressed in transfected cells; host or cells: HEK-293(EBNA)
T7 sequence (P21731 1-343): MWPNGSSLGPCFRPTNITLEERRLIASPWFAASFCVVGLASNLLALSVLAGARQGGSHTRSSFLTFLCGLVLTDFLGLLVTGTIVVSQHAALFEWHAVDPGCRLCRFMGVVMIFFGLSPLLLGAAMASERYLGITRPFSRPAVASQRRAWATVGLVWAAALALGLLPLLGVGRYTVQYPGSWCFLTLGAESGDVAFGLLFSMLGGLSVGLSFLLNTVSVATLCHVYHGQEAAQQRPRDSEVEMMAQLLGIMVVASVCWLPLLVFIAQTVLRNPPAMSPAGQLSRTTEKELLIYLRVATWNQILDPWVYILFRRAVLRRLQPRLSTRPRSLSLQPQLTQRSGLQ
In words: FLIPR calcium signal, HEK-293(EBNA) cells. The experiment is classed as cell-based. The method, then: as §1, §2, §3, §4

For the next experiment, the target named is T8, hFP (Homo sapiens, UniProt P43088).
T8 construct: expressed in transfected cells; host or cells: HEK-293(EBNA)
T8 sequence (P43088 whole entry): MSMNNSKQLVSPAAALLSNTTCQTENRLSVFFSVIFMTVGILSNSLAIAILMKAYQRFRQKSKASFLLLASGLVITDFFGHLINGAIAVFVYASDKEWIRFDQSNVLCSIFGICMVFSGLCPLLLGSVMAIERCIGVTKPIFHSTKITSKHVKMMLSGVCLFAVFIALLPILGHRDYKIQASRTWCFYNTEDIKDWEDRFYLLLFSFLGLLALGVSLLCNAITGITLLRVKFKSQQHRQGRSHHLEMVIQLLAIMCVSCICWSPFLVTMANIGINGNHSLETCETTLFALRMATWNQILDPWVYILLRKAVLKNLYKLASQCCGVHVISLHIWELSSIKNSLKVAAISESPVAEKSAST
In words: FLIPR calcium signal, HEK-293(EBNA) cells. The experiment is classed as cell-based. The method, then:
as §1, §2, §3, §4

For another experiment, the target named is T9, hDP/Gqs5 (Homo sapiens, UniProt Q13258).
T9 construct: expressed in transfected cells; host or cells: HEK-293(EBNA)
T9 sequence (Q13258 1-359): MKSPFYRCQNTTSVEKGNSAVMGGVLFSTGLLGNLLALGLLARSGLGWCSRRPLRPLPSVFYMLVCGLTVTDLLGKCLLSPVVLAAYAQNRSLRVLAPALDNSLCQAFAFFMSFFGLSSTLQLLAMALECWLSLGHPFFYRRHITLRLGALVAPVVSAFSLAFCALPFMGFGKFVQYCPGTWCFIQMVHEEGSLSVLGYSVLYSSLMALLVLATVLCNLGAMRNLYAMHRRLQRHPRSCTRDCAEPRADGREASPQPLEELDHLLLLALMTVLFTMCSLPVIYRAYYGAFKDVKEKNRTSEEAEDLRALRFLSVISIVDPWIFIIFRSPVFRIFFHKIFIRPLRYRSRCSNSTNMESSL
The experiment in a line: FLIPR calcium signal, HEK-293(EBNA) cells. Format: cell-based. Here is the method:
as §1, §2, §3, §4

Chain of EP2 (P43116 whole entry): as the sequence (P43116 whole entry) above
T4 sequence (P35408 whole entry): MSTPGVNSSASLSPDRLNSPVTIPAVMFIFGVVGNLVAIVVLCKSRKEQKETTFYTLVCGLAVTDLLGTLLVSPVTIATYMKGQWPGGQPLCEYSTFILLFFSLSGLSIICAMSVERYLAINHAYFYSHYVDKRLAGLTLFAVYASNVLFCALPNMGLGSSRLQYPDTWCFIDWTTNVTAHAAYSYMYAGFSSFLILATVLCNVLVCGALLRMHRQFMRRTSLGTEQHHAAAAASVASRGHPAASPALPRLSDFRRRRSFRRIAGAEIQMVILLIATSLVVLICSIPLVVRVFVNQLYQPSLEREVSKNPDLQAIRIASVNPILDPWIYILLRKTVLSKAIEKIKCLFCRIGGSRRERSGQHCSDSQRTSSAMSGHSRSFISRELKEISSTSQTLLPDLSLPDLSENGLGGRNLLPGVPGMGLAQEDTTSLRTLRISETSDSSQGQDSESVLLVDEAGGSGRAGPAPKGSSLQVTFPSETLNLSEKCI
T3 sequence (P35408 whole entry): as above

As for `CCCCCC(O)c1ccc([C@@H]2[C@@H](C/C=C\CCCC(=O)O)[C@H](Cl)C[C@@H]2Cl)cc1` (some centres unmarked) [compound 1], the EC50 at hEP3A/Gqi5 is 449 nM; at hEP2/Gqs5, 427 nM; on hEP4/Gqs5, above 10000 nM. Also, the results for the Ki on EP2 and at EP4 receptors were 504 nM and 2360 nM, respectively.
On to `CCCCCC(O)c1ccc([C@@H]2[C@@H](C/C=C\CCCC(=O)O)[C@H](Cl)C[C@H]2Cl)cc1` (some centres unmarked) [Entry 2], for which the “Ca2+ Signal-EC50 (nM) IP” value on hIP is “notactive”. In addition, the EC50 on hEP3A/Gqi5 came out at 25 nM; on hEP2/Gqs5 it was 15 nM. Also, at hEP1, the “Ca2+ Signal-EC50 (nM) EP1” value was “notactive”. On hTP, the “Ca2+ Signal-EC50 (nM) TP” value was “notactive”. For the same molecule, the “Ca2+ Signal-EC50 (nM) FP” value at hFP is recorded as “notactive”. The “Ca2+ Signal-EC50 (nM) DP” value at hDP/Gqs5 was “notactive”. In addition, the Ki at EP2 was 25 nM; at EP4 receptors, 1400 nM.
